Source: patent publication US6689773B2, “Uracil substituted phenyl sulfamoyl carboxamides” (BASF Aktiengesellschaft, priority 2000, dated 2004)

Assays:
Type in all cases: in vivo
[1] = tested on: ABUTH, Velvetleaf, Abutilon theophrasti, Medic.; experiment: Preemergence herbicidal evaluation (Example 148); details: rating scale 0-9, two to four weeks after treatment
Description: (§1) The scale is based upon a visual observation of plant stand, vigor, malformation, size, chlorosis and overall plant appearance as compared with a control.
(§2) The herbicidal activity of the compounds of the present invention was evaluated by the following tests wherein the seeds of a variety of monocotyledonous and dicotyledonous plants were separately mixed with potting soil and planted on top of approximately one inch of soil in separate pint cups. After planting, the cups were sprayed with the selected aqueous acetone solution containing test compound in sufficient quantity to provide the equivalent of about 0.125 to 0.250 kg per hectare of test compound per cup. The treated cups were then placed on greenhouse benches, watered and cared for in accordance with conventional greenhouse procedures. From two to four weeks after treatment, the tests were terminated and each cup was examined and rated according to the rating system provided in Example 94. When more than one test was performed for a given compound, the data were averaged.

[2] = tested on: ECHCG, Barnyardgrass, Echinochloa crusgalli, (L.)Beau; experiment: Preemergence herbicidal evaluation (Example 148); details: rating scale 0-9, two to four weeks after treatment
Description: as §1, §2

[3] = tested on: DIGSA, Crabgrass, (Hairy) L, Digitaria sanguinalis, (L)Scop; experiment: Preemergence herbicidal evaluation (Example 148); details: rating scale 0-9, two to four weeks after treatment
Description: as §1, §2

[4] = tested on: ALOMY, Blackgrass, Alopecurus myosuroides; experiment: Preemergence herbicidal evaluation (Example 148); details: rating scale 0-9, two to four weeks after treatment
Description: as §1, §2

[5] = tested on: SETVI, Green foxtail, Setaria viridis, (L.)Beau; experiment: Preemergence herbicidal evaluation (Example 148); details: rating scale 0-9, two to four weeks after treatment
Description: as §1, §2

[6] = tested on: IPOHE, Morningglory, Ivyleaf, Ipomoea hederacea, (L)Jacq.; experiment: Preemergence herbicidal evaluation (Example 148); details: rating scale 0-9, two to four weeks after treatment
Description: as §1, §2

[7] = tested on: AMBEL, Ragweed, Common, Ambrosia artemiisifolia, L.; experiment: Preemergence herbicidal evaluation (Example 148); details: rating scale 0-9, two to four weeks after treatment
Description: as §1, §2

[8] = tested on: CHEAL, Lambsquarters, Chenopodium album, L. Common; experiment: Preemergence herbicidal evaluation (Example 148); details: rating scale 0-9, two to four weeks after treatment
Description: as §1, §2

[9] = tested on: ZEAMX, Field corn, Zea mays L.; experiment: Preemergence herbicidal evaluation (Example 148); details: rating scale 0-9, two to four weeks after treatment
Description: as §1, §2

[10] = tested on: TRZAW, Winter wheat, Tritium Aestivum, L. (Winter); experiment: Preemergence herbicidal evaluation (Example 148); details: rating scale 0-9, two to four weeks after treatment
Description: as §1, §2

[11] = tested on: ABUTH, Velvetleaf, Abutilon theophrasti, Medic.; experiment: Postemergence herbicidal evaluation (Example 147); details: rating scale 0-9, two to three weeks after treatment
Description: (§3) Seedling plants were grown in jiffy flats for about two weeks. The test compounds were dispersed in 80/20 acetone/water mixtures containing 1.0% SUN-IT®II, a methylated seed oil, in sufficient quantities to provide the equivalent of about 0.016 to 0.032 kg per hectare of active compound when applied to the plants through a spray nozzle operating at 40 psi for a predetermined time. After spraying, the plants were placed on greenhouse benches and were cared for in accordance with conventional greenhouse procedures. Approximately two to three weeks after treatment, the seedling plants were examined and rated according to the rating scale (0-9) set forth below. Where more than one test is involved for a given compound, the data are averaged. [table] The scale is based upon a visual observation of plant stand, vigor, malformation, size, chlorosis and overall plant appearance as compared with a control. Plant species employed in these evaluations are reported by header abbreviation, common name and scientific name. [table]

[12] = tested on: ECHCG, Barnyardgrass, Echinochloa crusgalli, (L.)Beau; experiment: Postemergence herbicidal evaluation (Example 147); details: rating scale 0-9, two to three weeks after treatment
Description: as §3

[13] = tested on: DIGSA, Crabgrass, (Hairy) L, Digitaria sanguinalis, (L)Scop; experiment: Postemergence herbicidal evaluation (Example 147); details: rating scale 0-9, two to three weeks after treatment
Description: as §3

[14] = tested on: ALOMY, Blackgrass, Alopecurus myosuroides; experiment: Postemergence herbicidal evaluation (Example 147); details: rating scale 0-9, two to three weeks after treatment
Description: as §3

[15] = tested on: SETVI, Green foxtail, Setaria viridis, (L.)Beau; experiment: Postemergence herbicidal evaluation (Example 147); details: rating scale 0-9, two to three weeks after treatment
Description: as §3

[16] = tested on: XANST, Cocklebur, Xanthium strumariam; experiment: Postemergence herbicidal evaluation (Example 147); details: rating scale 0-9, two to three weeks after treatment
Description: as §3

[17] = tested on: IPOHE, Morningglory, Ivyleaf, Ipomoea hederacea, (L)Jacq.; experiment: Postemergence herbicidal evaluation (Example 147); details: rating scale 0-9, two to three weeks after treatment
Description: as §3

[18] = tested on: AMBEL, Ragweed, Common, Ambrosia artemiisifolia, L.; experiment: Postemergence herbicidal evaluation (Example 147); details: rating scale 0-9, two to three weeks after treatment
Description: as §3

[19] = tested on: CHEAL, Lambsquarters, Chenopodium album, L. Common; experiment: Postemergence herbicidal evaluation (Example 147); details: rating scale 0-9, two to three weeks after treatment
Description: as §3

[20] = tested on: ZEAMX, Field corn, Zea mays L.; experiment: Postemergence herbicidal evaluation (Example 147); details: rating scale 0-9, two to three weeks after treatment
Description: as §3

[21] = tested on: TRZAW, Winter wheat, Tritium Aestivum, L. (Winter); experiment: Postemergence herbicidal evaluation (Example 147); details: rating scale 0-9, two to three weeks after treatment
Description: as §3

[22] = tested on: GLXMA, Soybean, Glycine max, (L.) Merr.; experiment: Postemergence herbicidal evaluation (Example 147); details: rating scale 0-9, two to three weeks after treatment
Description: as §3

SMILES: CCC(C)NS(=O)(=O)NC(=O)c1cc(-n2c(=O)cc(C(F)(F)F)n(C)c2=O)c(F)cc1Cl (stereo not shown) [Example 64]
- Preemergence herbicidal rating ABUTH ([1]; rate 0.125 kg/ha): 9.0
- Preemergence herbicidal rating ABUTH ([1]; rate 0.25 kg/ha): 9.0
- Preemergence herbicidal rating ECHCG ([2]; rate 0.125 kg/ha): 3.0
- Preemergence herbicidal rating ECHCG ([2]; rate 0.25 kg/ha): 7.0
- Preemergence herbicidal rating DIGSA ([3]; rate 0.125 kg/ha): 8.0
- Preemergence herbicidal rating DIGSA ([3]; rate 0.25 kg/ha): 9.0
- Preemergence herbicidal rating ALMOY ([4]; rate 0.125 kg/ha): 0.0
- Preemergence herbicidal rating ALMOY ([4]; rate 0.25 kg/ha): 4.0
- Preemergence herbicidal rating SETVI ([5]; rate 0.125 kg/ha): 8.0
- Preemergence herbicidal rating SETVI ([5]; rate 0.25 kg/ha): 9.0
- Preemergence herbicidal rating IPOHE ([6]; rate 0.125 kg/ha): 9.0
- Preemergence herbicidal rating IPOHE ([6]; rate 0.25 kg/ha): 9.0
- Preemergence herbicidal rating AMBEL ([7]; rate 0.125 kg/ha): 9.0
- Preemergence herbicidal rating AMBEL ([7]; rate 0.25 kg/ha): 9.0
- Preemergence herbicidal rating CHEAL ([8]; rate 0.125 kg/ha): 9.0
- Preemergence herbicidal rating CHEAL ([8]; rate 0.25 kg/ha): 9.0
- Preemergence herbicidal rating ZEAMX ([9]; rate 0.125 kg/ha): 0.0
- Preemergence herbicidal rating ZEAMX ([9]; rate 0.25 kg/ha): 2.0
- Preemergence herbicidal rating TRZAW ([10]; rate 0.125 kg/ha): 0.0
- Preemergence herbicidal rating TRZAW ([10]; rate 0.25 kg/ha): 3.0
- Postemergence herbicidal rating ABUTH ([11]; rate 0.016 kg/ha): 9.0
- Postemergence herbicidal rating ABUTH ([11]; rate 0.032 kg/ha): 9.0
- Postemergence herbicidal rating ECHCG ([12]; rate 0.016 kg/ha): 9.0
- Postemergence herbicidal rating ECHCG ([12]; rate 0.032 kg/ha): 9.0
- Postemergence herbicidal rating DIGSA ([13]; rate 0.016 kg/ha): 5.0
- Postemergence herbicidal rating DIGSA ([13]; rate 0.032 kg/ha): 5.0
- Postemergence herbicidal rating ALMOY ([14]; rate 0.016 kg/ha): 3.0
- Postemergence herbicidal rating ALMOY ([14]; rate 0.032 kg/ha): 5.0
- Postemergence herbicidal rating SETVI ([15]; rate 0.016 kg/ha): 8.0
- Postemergence herbicidal rating SETVI ([15]; rate 0.032 kg/ha): 9.0
- Postemergence herbicidal rating XANST ([16]; rate 0.016 kg/ha): 9.0
- Postemergence herbicidal rating XANST ([16]; rate 0.032 kg/ha): 9.0
- Postemergence herbicidal rating IPOHE ([17]; rate 0.016 kg/ha): 9.0
- Postemergence herbicidal rating IPOHE ([17]; rate 0.032 kg/ha): 9.0
- Postemergence herbicidal rating AMBEL ([18]; rate 0.016 kg/ha): 9.0
- Postemergence herbicidal rating AMBEL ([18]; rate 0.032 kg/ha): 9.0
- Postemergence herbicidal rating CHEAL ([19]; rate 0.016 kg/ha): 9.0
- Postemergence herbicidal rating CHEAL ([19]; rate 0.032 kg/ha): 9.0
- Postemergence herbicidal rating ZEAMX ([20]; rate 0.016 kg/ha): 7.5
- Postemergence herbicidal rating ZEAMX ([20]; rate 0.032 kg/ha): 8.0
- Postemergence herbicidal rating TRZAW ([21]; rate 0.016 kg/ha): 6.0
- Postemergence herbicidal rating TRZAW ([21]; rate 0.032 kg/ha): 7.0
- Postemergence herbicidal rating GLXMA ([22]; rate 0.016 kg/ha): 7.5
- Postemergence herbicidal rating GLXMA ([22]; rate 0.032 kg/ha): 8.0

SMILES: Cn1c(C(F)(F)F)cc(=O)n(-c2cc(C(=O)NS(=O)(=O)NC(C)(C)C)c(Cl)cc2F)c1=O [Example 65]
- Preemergence herbicidal rating ABUTH ([1]; rate 0.125 kg/ha): 9.0
- Preemergence herbicidal rating ABUTH ([1]; rate 0.25 kg/ha): 9.0
- Preemergence herbicidal rating ECHCG ([2]; rate 0.125 kg/ha): 8.0
- Preemergence herbicidal rating ECHCG ([2]; rate 0.25 kg/ha): 9.0
- Preemergence herbicidal rating DIGSA ([3]; rate 0.125 kg/ha): 7.0
- Preemergence herbicidal rating DIGSA ([3]; rate 0.25 kg/ha): 9.0
- Preemergence herbicidal rating ALMOY ([4]; rate 0.125 kg/ha): 0.0
- Preemergence herbicidal rating ALMOY ([4]; rate 0.25 kg/ha): 0.0
- Preemergence herbicidal rating SETVI ([5]; rate 0.125 kg/ha): 3.0
- Preemergence herbicidal rating SETVI ([5]; rate 0.25 kg/ha): 6.0
- Preemergence herbicidal rating IPOHE ([6]; rate 0.125 kg/ha): 9.0
- Preemergence herbicidal rating IPOHE ([6]; rate 0.25 kg/ha): 9.0
- Preemergence herbicidal rating AMBEL ([7]; rate 0.125 kg/ha): 9.0
- Preemergence herbicidal rating AMBEL ([7]; rate 0.25 kg/ha): 9.0
- Preemergence herbicidal rating CHEAL ([8]; rate 0.125 kg/ha): 9.0
- Preemergence herbicidal rating CHEAL ([8]; rate 0.25 kg/ha): 9.0
- Preemergence herbicidal rating ZEAMX ([9]; rate 0.125 kg/ha): 0.0
- Preemergence herbicidal rating ZEAMX ([9]; rate 0.25 kg/ha): 1.0
- Preemergence herbicidal rating TRZAW ([10]; rate 0.125 kg/ha): 1.0
- Preemergence herbicidal rating TRZAW ([10]; rate 0.25 kg/ha): 1.0
- Postemergence herbicidal rating ABUTH ([11]; rate 0.016 kg/ha): 9.0
- Postemergence herbicidal rating ABUTH ([11]; rate 0.032 kg/ha): 9.0
- Postemergence herbicidal rating ECHCG ([12]; rate 0.016 kg/ha): 8.0
- Postemergence herbicidal rating ECHCG ([12]; rate 0.032 kg/ha): 9.0
- Postemergence herbicidal rating DIGSA ([13]; rate 0.016 kg/ha): 6.0
- Postemergence herbicidal rating DIGSA ([13]; rate 0.032 kg/ha): 8.0
- Postemergence herbicidal rating ALMOY ([14]; rate 0.016 kg/ha): 2.0
- Postemergence herbicidal rating ALMOY ([14]; rate 0.032 kg/ha): 3.0
- Postemergence herbicidal rating SETVI ([15]; rate 0.016 kg/ha): 8.0
- Postemergence herbicidal rating SETVI ([15]; rate 0.032 kg/ha): 8.0
- Postemergence herbicidal rating XANST ([16]; rate 0.016 kg/ha): 9.0
- Postemergence herbicidal rating XANST ([16]; rate 0.032 kg/ha): 9.0
- Postemergence herbicidal rating IPOHE ([17]; rate 0.016 kg/ha): 9.0
- Postemergence herbicidal rating IPOHE ([17]; rate 0.032 kg/ha): 9.0
- Postemergence herbicidal rating AMBEL ([18]; rate 0.016 kg/ha): 9.0
- Postemergence herbicidal rating AMBEL ([18]; rate 0.032 kg/ha): 9.0
- Postemergence herbicidal rating CHEAL ([19]; rate 0.016 kg/ha): 8.0
- Postemergence herbicidal rating CHEAL ([19]; rate 0.032 kg/ha): 9.0
- Postemergence herbicidal rating ZEAMX ([20]; rate 0.016 kg/ha): 7.5
- Postemergence herbicidal rating ZEAMX ([20]; rate 0.032 kg/ha): 8.0
- Postemergence herbicidal rating TRZAW ([21]; rate 0.016 kg/ha): 5.5
- Postemergence herbicidal rating TRZAW ([21]; rate 0.032 kg/ha): 6.5
- Postemergence herbicidal rating GLXMA ([22]; rate 0.016 kg/ha): 8.0
- Postemergence herbicidal rating GLXMA ([22]; rate 0.032 kg/ha): 8.5
